Laboratory results taken from article PMC12037410, “Pharmacological targeting of BMAL1 modulates circadian and immune pathways” (Nature Chemical Biology, 2025).

Molecular target: BMAL1 (Homo sapiens, UniProt O00327)
Parameters: PASB domain (residues 338–449); Protein thermal shift (PTS) fragment screen on recombinant human BMAL1(PASB), shift of melting temperature
Conditions: dTmB; binder

BMAL1, sequence (O00327 338-449): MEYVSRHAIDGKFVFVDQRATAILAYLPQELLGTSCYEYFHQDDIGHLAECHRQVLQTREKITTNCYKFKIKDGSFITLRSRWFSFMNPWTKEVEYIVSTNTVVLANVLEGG

Compound | Bmal1(PASB) dTmB [°C]
CNC(=O)c1cnc(C)cn1 [Prestw-Frag-1350, Compound 286] | 0.06
CNCCc1c[nH]c2ccccc12 [Prestw-Frag-1356, Compound 318] | -0.40
O=C1COc2ccccc21 [Prestw-Frag-1361, Compound 165] | -0.13
COc1ccc2c(c1)OCC2=O [Prestw-Frag-1362, Compound 212] | -0.12
OC1(c2ccc(Cl)cc2)CCNCC1 [Prestw-Frag-1365, Compound 373] | -1.00
CCCC(=O)c1ccc(F)cc1 [Prestw-Frag-1368, Compound 311] | -0.19
COc1ccc2cc[nH]c2c1 [Prestw-Frag-1372, Compound 392] | 0.28
Oc1ccc2cc[nH]c2c1 [Prestw-Frag-1374, Compound 33] | 0.97
O=C(OC1CCCCC1)c1ccccc1O [Prestw-Frag-1382, Compound 265] | 0.09
NCC(O)COc1cccc2ccccc12 (stereo not shown) [Prestw-Frag-1389, Compound 450] | 1.58
NS(=O)(=O)c1ccccc1C(F)(F)F [Prestw-Frag-1394, Compound 374] | -0.07
c1cc2c(cc1CN1CCNCC1)OCO2 [Prestw-Frag-1397, Compound 232] | -0.60
c1cnc(N2CCNCC2)nc1 [Prestw-Frag-1398, Compound 399] | -0.21
COC(=O)C(CO)c1ccccc1 (stereo not shown) [Prestw-Frag-1406, Compound 266] | -0.21
Cc1cn[nH]c1C [Prestw-Frag-1408, Compound 109] | -1.01
NNC(=O)c1ccncc1 [Prestw-Frag-1419, Compound 226] | -0.26
NNC(=O)c1ccccc1 [Prestw-Frag-1420, Compound 187] | -0.31
c1cnc2[nH]ncc2c1 [Prestw-Frag-1428, Compound 174] | -0.31
NC(=O)c1ccccc1O [Prestw-Frag-1439, Compound 86] | 0.06
c1ccc(-c2ccccc2-c2nn[nH]n2)cc1 [Prestw-Frag-1441, Compound 357] | -0.44
c1ccc(CC2NCCc3ccccc32)cc1 (stereo not shown) [Prestw-Frag-1444, Compound 267] | -1.30
COc1ccc(CCN(C)C)cc1OC [Prestw-Frag-1445, Compound 247] | -0.12

Compound | Bmal1(PASB) dTmB [°C]
CNCCc1ccc(OC)c(OC)c1 [Prestw-Frag-1446, Compound 257] | -0.19
CN(C)C(=O)C(c1ccccc1)c1ccccc1 [Prestw-Frag-1453, Compound 166] | -0.94
CCN(CC)Cc1cc(N)ccc1O [Prestw-Frag-1462, Compound 5] | -4.46
Nc1nc2ccc(C(=O)c3ccccc3)cc2[nH]1 [Prestw-Frag-1471, Compound 466] | -1.29
c1ccc(CNc2ccccn2)cc1 [Prestw-Frag-1475, Compound 204] | -1.06
CN(C)CCNCc1ccccc1 [Prestw-Frag-1476, Compound 397] | -0.27
CC(=O)NCCc1c[nH]c2ccccc12 [Prestw-Frag-1478, Compound 417] | -0.27
COc1ccc2[nH]cc(CCN)c2c1 [Prestw-Frag-1480, Compound 3] | 3.24
Nc1c(Cl)ccc2nsnc12 [Prestw-Frag-1492, Compound 2] | -1.34
Cc1cnc(C(=O)O)cn1 [Prestw-Frag-1494, Compound 98] | 0.14
O=C(O)c1cnccn1 [Prestw-Frag-1495, Compound 269] | 0.04
O=C(O)CC[C@H](NC(=O)c1ccccc1)C(=O)O [Prestw-Frag-1499, Compound 195] | 0.09
COc1cc(C)cc(C)c1C [Prestw-Frag-1506, Compound 359] | -0.12
Cc1nccn1CCO [Prestw-Frag-1517, Compound 258] | -0.20
CNCC(c1ccc(OC)cc1)C1(O)CCCCC1 (stereo not shown) [Prestw-Frag-1523, Compound 157] | -0.81
CN(C)C(=O)Oc1ccccc1 [Prestw-Frag-1540, Compound 384] | -0.26
Nc1ccc([N+](=O)[O-])cc1Cl [Prestw-Frag-1543, Compound 463] | 0.66
O=C(Nc1ccccc1Cl)c1ccccc1O [Prestw-Frag-1545, Compound 383] | 1.33
COC(=O)C1=C(C)NC(C)=C(C(=O)OC)C1 [Prestw-Frag-1547, Compound 26] | -1.89
COc1ccc(N2CCN(c3ccc(N)cc3)CC2)cc1 [Prestw-Frag-1557, Compound 35] | 0.19
O=c1[nH]nc(Cc2ccc(Cl)cc2)c2ccccc12 [Prestw-Frag-1559, Compound 61] | -0.44
O=c1[nH]ncc2ccccc12 [Prestw-Frag-1560, Compound 345] | -0.38

Compound | Bmal1(PASB) dTmB [°C]
O=c1[nH]nc(Cc2ccccc2)c2ccccc12 [Prestw-Frag-1561, Compound 106] | -0.90
CC(C)CC(N)C1(c2ccc(Cl)cc2)CCC1 (stereo not shown) [Prestw-Frag-1566, Compound 459] | -2.54
Cc1cc(C(C)(C)C)cc(C)c1CC1=NCCN1 [Prestw-Frag-1575, Compound 425] | -1.26
O=c1[nH]c2ccccc2n1C1CCNCC1 [Prestw-Frag-1587, Compound 407] | -0.86
OCCOc1cccc2[nH]ccc12 [Prestw-Frag-1595, Compound 110] | -0.17
NCCc1c[nH]c2ccc(O)cc12 [Prestw-Frag-1643, Compound 78] | -0.60
Oc1ccc2[nH]ccc2c1 [Prestw-Frag-1645, Compound 308] | 0.24
Cc1cc(N)no1 [Prestw-Frag-1647, Compound 292] | -0.16
Nc1ccnn1-c1ccccc1 [Prestw-Frag-1648, Compound 208] | -0.34
OC(c1ccccc1)(c1ccccc1)C1CCNCC1 [Prestw-Frag-1654, Compound 403] | -1.27
NC(=O)CN1C(=O)c2ccccc2C1=O [Prestw-Frag-1661, Compound 297] | -0.12
Cc1ccc(S(=O)(=O)NC(N)=O)cc1 [Prestw-Frag-1667, Compound 248] | 0.07
O=c1[nH]nc2ccccn12 [Prestw-Frag-1673, Compound 287] | -1.05
O=C(O)C(CO)c1ccccc1 (stereo not shown) [Prestw-Frag-1686, Compound 284] | -1.23
CC(N)COc1ccccc1 (stereo not shown) [Prestw-Frag-1691, Compound 270] | 0.11
c1cc2c(s1)CCNC2 [Prestw-Frag-1694, Compound 112] | -0.53
Clc1cccc(CN2CCNCC2)c1 [Prestw-Frag-1700, Compound 62] | -0.92
Clc1ccc(-c2cncnc2)cc1 [Prestw-Frag-1704, Compound 385] | -1.51
CCCC(=O)Nc1ccc(O)c(C(C)=O)c1 [Prestw-Frag-1716, Compound 95] | -1.04
CCCC(=O)Nc1cccc(C(C)=O)c1 [Prestw-Frag-1717, Compound 428] | -0.30
c1ccc2c(c1)CNc1ccccc1C2 [Prestw-Frag-1722, Compound 6] | -1.75
COc1cc(C(N)=O)cc(OC)c1OC [Prestw-Frag-1731, Compound 341] | -0.33

Compound | Bmal1(PASB) dTmB [°C]
CCN(CC)CCOC(=O)c1ccccc1 [Prestw-Frag-1735, Compound 406] | -0.48
O=C1CCOc2ccccc21 [Prestw-Frag-1740, Compound 360] | -0.05
Clc1ccc(C(c2ccccc2)N2CCNCC2)cc1 (stereo not shown) [Prestw-Frag-1741, Compound 476] | -4.68
O=C(NCc1cccnc1)c1ccc(O)cc1 [Prestw-Frag-1747, Compound 457] | -0.46
CC(=O)Nc1ncc([N+](=O)[O-])s1 [Prestw-Frag-1750, Compound 291] | 0.07
O=C(O)CCCc1ccc(-c2ccccc2)cc1 [Prestw-Frag-1767, Compound 455] | -2.43
O=C(O)CCC(=O)c1ccccc1 [Prestw-Frag-1768, Compound 87] | -0.11
CNCCC(c1ccccc1)c1ccccc1 [Prestw-Frag-1772, Compound 410] | -1.48
COc1ccc(Cl)cc1C(N)=O [Prestw-Frag-1775, Compound 316] | -0.78
CC(=O)Nc1ccccn1 [Prestw-Frag-1782, Compound 170] | -0.28
Cc1cccc(O)c1 [Prestw-Frag-1791, Compound 216] | -0.80
Cc1c(N)c(=O)n(-c2ccccc2)n1C [Prestw-Frag-1807, Compound 18] | -0.46
COc1ccc(OCC(N)=O)cc1 [Prestw-Frag-1812, Compound 300] | 0.07
c1ccc(C(c2ccccc2)N2CCCNCC2)cc1 [Prestw-Frag-1817, Compound 445] | -1.89
NNCCc1ccccc1 [Prestw-Frag-1818, Compound 31] | -1.46
Cc1[nH]c2ccccc2c1CC(=O)O [Prestw-Frag-1824, Compound 477] | -6.48
O=C(COc1ccc(Cl)cc1)N1CCNCC1 [Prestw-Frag-1832, Compound 244] | -1.08
Cc1ccccc1NC(=O)C(C)N (stereo not shown) [Prestw-Frag-1856, Compound 389] | 0.12
CC(C(=O)O)c1ccccc1 (stereo not shown) [Prestw-Frag-1859, Compound 194] | -0.02
